# In patent US6159953A, “Anti-malarial composition and method of use” (Catholic University of America, priority 1992, dated 2000):
# Like-named read-outs stand apart in the source and are kept apart here.
# What was measured:
# thymidylate synthesis = conditions: Heidelberger 1983; cited from earlier work
# [1] = tested on: Plasmodium falciparum, Indochina clone W2; experiment: microbe, parasite or virus in culture; conditions: for IC50: Plasmodium falciparum; for Molar Index: Indochina clone, equimolar activity of 5-fluoroorotate relative to the conventional drug
# Description: In the antimalarial experiment with parasites, incorporation of radioactivity from [G-^3 H]-hypoxanthine into nucleic acids served as a measure of parasite proliferation. […] Each data point represents an average of two determinations. In the study of toxicity to human cells, proliferation of cells was determined directly by measuring the number of viable cells per well. […] Each data point represents an average of two determinations. 5-fluoro-orotate (.circle-solid.), 5-fluorouracil (.box-solid.), 5-fluorouridine (.tangle-solidup.), and 5-fluoro-2'-deoxyuridine (.diamond-solid.).
# (§1) Half shaded symbols represent overlapping data points.
# (§2) 3. Effects of pyrimidine analogues alone or in combination with normal pyrimidine bases or nucleosides or with amino acid derivatives can be tested in malaria parasite-infected erythrocytes. Varying concentrations of pyrimidine analogues in culture medium are added to individual wells of microtitre plates [Desjardins, R. E. et al., Antimicrob. […] Parasitemic erythrocytes in culture medium are added to each well. […] As an alternative to adding a radioactive precursor of nucleic acid biosynthesis, the end point for determining the effects of added drugs can be the incorporation of a radioactive amino acid, e.g., [U-^14 C]-isoleucine, into parasite protein.
# Fluoropyrimidines, dispersed in 25 μl of culture medium, were added to individual wells of a 96-well microtitre plate. […] Finally, the incorporation of 0.5 μCi of [G-^3 H]hypoxanthine (1 Ci/mmol) into nucleic acids in each well was determined; this served as a measure of parasite proliferation.
# [2] = tested on: HT-1080 human fibrosarcoma cells; experiment: Toxicity to cultured HT-1080 cells, number of viable cells; assay type: cell-based; conditions: Homo sapiens, HT-1080, 48 h
# Description: Each data point represents an average of two determinations. […] Each data point represents an average of two determinations.
# as §1
# Toxicity of pyrimidine analogues to cultured human cells is determined as follows. Mammalian cells are seeded into culture plate wells, and growth medium is added. The following day, fresh culture medium containing the appropriate pyrimidine analogues is added to the wells, and the plates incubated for a period of time and at a temperature appropriate to the cell line and the experimental requirements. Thereafter, the number of cells in each well is determined. […] Cells that grow in suspension (e.g., HL-60 and L-1210 cells) are transferred to centrifuge tubes, pelleted at low speed, washed, and the viability determined as above.
# HT-1080 cells were seeded into 6-well culture plates at a density of 50,000 cells per 9.6 cm^2 well. Each well contained 2.5 ml of growth medium. […] After 1 minute, the detached cells were suspended in 1.0 ml of EMEM and collected by centrifugation at 300×g for 3 minutes. […] The concentrations of viable cells were determined in a hemocytometer.
# [3] = tested on: Plasmodium falciparum, Sierra Leone clone D6; experiment: Inhibition of P. falciparum proliferation, [G-3H]-hypoxanthine incorporation, Sierra Leone clone D6 (chloroquine-sensitive); assay type: cell-based; conditions: Sierra Leone clone; for IC50: Plasmodium falciparum, D6, Table 1, mean ± S.D. of five independent drug response curves; for Molar Index: equimolar activity of 5-fluoroorotate relative to the conventional drug
# Description: as §2
# Fluoropyrimidines, dispersed in 25 μl of culture medium, were added to individual wells of a 96-well microtitre plate. […] Finally, the incorporation of 0.5 μCi of [G-^3 H]hypoxanthine (1 Ci/mmol) into nucleic acids in each well was determined; this served as a measure of parasite proliferation. […] In a second method, the increase in parasitemia was determined directly by smearing infected erythrocytes on microscope slides, staining with Giemsa stain, and determining the ratio of infected to non-infected erythrocytes. In a third method, parasite-infected erythrocytes were incubated with [U-^14 C]-isoleucine (0.5 μCi; 0.33 Ci/mmol), and the amount of radioactivity incorporated into precipitable proteins determined.
# [4] = cited from earlier work
# P. yoelii = experiment: Anti-malarial activity in P. yoelii-infected mice; assay type: in vivo, P. yoelii in Swiss white mice; conditions: experiment 2 control, 800 mg/kg uridine alone
# Description: FIG. 4 illustrates the effect of 5-fluoro-orotate treatment on blood parasitemia. Mice infected with P. yoelii on day 0 in experiments 1 and 2 were treated with (A) 0.2 mg/kg 5-fluoro-orotate, (B) 1 mg/kg, or (C) 5 mg/kg every 4 hours for three days. Control mice (.largecircle., .circle-solid., respectively), received no drug. Open symbols represent treatment without uridine (experiment 1: .smallcircle., .quadrature., .diamond., Δ), and filled symbols represent animals also treated with uridine (experiment 2: .circle-solid., .box-solid., .diamond-solid., .tangle-solidup.). Animals were treated with 5-fluoro-orotate on days 3 to 6. Animals were also treated with uridine in experiment 2 on days 3 to 9.
# FIG. 5 illustrates the survival rate of mice infected with P. yoelii and treated with 5-fluoro-orotate, alone or in combination with uridine. Mice were treated with (A) 0.2 mg/kg 5-fluoro-orotate, (B) 1 mg/kg, or (C) 5 mg/kg. Control mice received no 5-fluoro-orotate (.largecircle., .circle-solid., respectively). Open symbols represent treatment without uridine (experiment 1: .largecircle., .quadrature., .diamond., Δ), and closed symbols represent animals also receiving uridine (experiment 2: .circle-solid., .box-solid., .diamond-solid., .tangle-solidup.).
# A second in vivo test system can be used to determine if repeated administration of the pyrimidine analogue would have safe anti-malarial activity. In this test system, groups of animals are infected with malaria parasites. At a time when blood parasitemia is reached, the animals are injected with saline alone (control) or with various concentrations of one or more pyrimidine analogues alone or together with one or more rescuing pyrimidine bases or nucleosides at a single concentration, at intervals, over a period of several days. In order to determine the prophylactic effectiveness of the rescuing pyrimidine base or nucleoside, the animals are pretreated with such a base or nucleoside prior to the administration of the pyrimidine analogue. Anti-malarial activity of the treatments is estimated by determining blood parasitemia on the animals at appropriate times. The safety of the treatments is estimated by monitoring animals for weight loss and diarrhea, as these are early symptoms of pyrimidine analogue toxicity [Houghton, J. A., et al., Cancer Res., 39:2406-13 (1979)].
# Swiss white mice (25-30 g) were divided into groups of five. On day 0, each mouse was infected by intraperitoneal injection of 10^5 erythrocytic forms of P. yoelii. Starting on day 3, when the blood parasitemia had reached between 5 and 12%, the mice were injected intraperitoneally every 4 hours for three consecutive days with 200 μl of various formulations. […]
# [5] = text value (FIG. 1B), read-out: IC50
smiles,measurement,setting,value
O=c1[nH]c(=O)n([C@H]2C[C@H](O)[C@@H](COP(=O)(O)O)O2)cc1F [5-fluoro-2'-deoxy-uridylate],inhibition of thymidylate synthesis,thymidylate synthesis,potent enzyme-activated inhibitor of thymidylate synthesis
"O=c1[nH]c(=O)n([C@H]2C[C@H](O)[C@@H](CO)O2)cc1F [5-fluoro-2'-deoxyuridine, reference compound]",IC50,"[1]; W2, 48 h",100 µM
same,IC50,[2]; [5],10 nM
"O=c1[nH]cc(F)c(=O)[nH]1 [5-fluoro-uracil, reference compound]",IC50,"[1]; W2, 48 h",12 µM
same,IC50,[2]; read-out: IC50 (50% inhibition),2000 nM
"O=c1[nH]c(=O)n([C@@H]2O[C@H](CO)[C@@H](O)[C@H]2O)cc1F [5-fluoro-uridine, reference compound]",IC50,"[1]; W2, 48 h",32 µM
same,IC50,[2]; [5],30 nM
CCN(CC)CCCC(C)Nc1ccnc2cc(Cl)ccc12 (stereo not shown) [Chloroquine],Molar Index,[1],21
same,IC50,[1]; W2,0.127 ± 0.023 µM
same,IC50,[3],9 ± 1.7 nM
same,Molar Index,[3],1.6
same,"tolerability, oral",[4]; oral,typically is well-tolerated
same,"safety, parenteral","[4]; parenteral, children",may cause cardiac arrhythmia and sudden death in children
CCc1nc(N)nc(N)c1-c1ccc(Cl)cc1 [Pyrimethamine],Molar Index,[1],19
same,IC50,[1]; W2,0.111 ± 0.029 µM
same,IC50,[3]; read-out: IC50,0.24 ± 0.16 nM
same,Molar Index,[3],0.04
COc1ncnc(NS(=O)(=O)c2ccc(N)cc2)c1OC [Sulfadoxine],Molar Index,[1],4344
same,IC50,[1]; W2,25.6 ± 7.08 µM
same,IC50,[3]; read-out: IC50,76.2 ± 13.2 nM
same,Molar Index,[3],13.5
"O=c1ccn([C@@H]2O[C@H](CO)[C@@H](O)[C@H]2O)c(=O)[nH]1 [uridine, reference compound]","mortality, uridine alone",P. yoelii,all succumbed to P. yoelii
